# Values quoted from earlier work in patent US10190039B2, “Synthetic acid compositions alternatives to conventional acids in the oil and gas industry” (priority 2014, dated 2019).
# Conditions: death in 2-3 minutes
smiles,measurement,value
"Cl [hydrogen chloride gas, hydrogen chloride]",Level at which death can occur,1300-2000 ppm
